Results on 3 molecules are retold here after patent US5457030A, “Method and composition for determining antimicrobial susceptibility of the majority clinically significant Gram postitive organism” (MicroScan, Inc., priority 1993, dated 1995).

The nature of data set [1]: Redissolution of fluorogenic substrate after dehydration. In kind it is physicochemical. From the text:
In the Sensititre™ procedure the substrates mixture consists of alanyl-7-amido-4-methylcoumarin, 4-methylumebelliferyl phosphate and 4-methylumbelliferyl nonanoate. […] Moreover, a special procedure of drying the substrate mixture on a solid carrier in combination with an emulsifying agent was the preferred method in the EP #0,09187 description. Removal of this compound from the mixture allows easy preparation and aliquoting of the fluorogenic substrate mixture. […] The current fluorogenic substrate mixture also allows for testing of a larger range of Gram positive species than previously described. Additionally, the use of the autoSCAN®-W/A allows monitoring of growth for between 31/2 and 15 hours, determination of minimum inhibitory concentration occurring only when sufficient growth has been achieved. This ensures that the minimum inhibitory concentration determinations of each isolate is determined at the optimal time.

The subject of data set [2] is Enterococcus faecalis. Description: Minimum inhibitory concentration determination, Example 1 (Table 7). In kind it is cell-based. The note with it: for MIC: Enterococcus faecalis. The protocol: (§1) A primary inoculum suspension of a bacterial isolate in saline-pluronic, equivalent to a 0.5 McFarland turbidity standard is prepared. The final inoculum suspension is prepared by diluting a 0.3 ml aliquot of the primary suspension in 25 ml of Rapid Pos Inoculum Broth (B1015-14, Baxter Diagnostics Inc., MicroScan Division, West Sacramento, Calif.). A 115 μl of the final inoculum is added to the growth compartment which contains dried material of fluorogenic enzyme substrates equivalent to 0.023 mM leucine-7-amido-4-methylcoumarin, 0.012 mM phenylalanine-7-amido-4-methylcoumarin and 0.058 mM methylumbelliferyl phosphate and 1.15 mM HEPES buffer at pH 7.0. The final inoculum is also added to a number of compartments containing dried material identical to that in the growth well and different concentrations of an antimicrobial agent. An aliquot of the final inoculum is also added to a compartment, containing only dried HEPES buffer, acting as a control. The inoculated multicompartment device (panel) is inserted in the autoSCAN®-W/A. The fluorescence of each compartment is measured at predetermined times and a Growth Index is calculated by dividing the fluorescence of the growth compartment by that of the negative control compartment.
(§2) If the value of the Growth Index is equal to or exceeds a specified value, the Minimum Inhibitory Concentration for every antimicrobial agent present in the multicompartment device is calculated. Otherwise the device is returned to its position and measured again at the next read time. The read times in this example are 3.5, 4.5, 5.5, 7.0, 8.0, 11.0, and 15.0 hours. For calculation of minimum inhibitory concentration, the percent fluorescence of compartments containing the different concentrations of the antimicrobial agent is calculated by subtracting from each compartment the fluorescence of the control well and dividing it by the delta fluorescence of the growth compartment, obtained by subtracting the fluorescence of the negative control compartment from the fluorescence of the growth compartment. The minimum inhibitory concentration is calculated using a mathematical model specific for each concentration range of the antimicrobial agent. Using a mathematical model based on discriminate functional analysis, the minimum inhibitory concentration of each antimicrobial agent, for the organism tested, can be determined. Utilization of a discriminate function analysis model in microbiological pattern recognition is described in S. Bascomb, Computers in Taxonomy and Systematics, p. 65-102 In T. N. Bryant and J. W. T. Wimpenny (Ed.), Computers in Microbiology, a Practical Approach (IRL Press, Oxford). In an alternative embodiment the minimum inhibitory concentration for each antimicrobial agent for the organism tested can be determined by a breakpoint or threshold method or linear regression analysis. J. McKie, et al., Antimicrobial Agents and Chemotherapy (1980) v. 17, 813-823.
(§3) In Example 1, the growth of Enterococcus faecalis in wells containing specified amounts of antimicrobial agents is estimated by measurement of fluorescence. In Table 6, the percent fluorescence at different concentrations of antimicrobial agents is reported. For example, 0.12, 0.25, 0.5, 1, 2, 4 and 8 μg/mL of ampicillin (Am) were present in the microdilution wells.
In Table 7, the minimum inhibitory concentration for Example 1 are reported.

The subject of data set [3] is Enterococcus faecalis. The experiment in a line: Percent fluorescence (growth) in wells containing antimicrobial agents, Example 1 (Table 6). In kind it is cell-based. The protocol: as §1
^FL growth - ^FL control
as §2, §3
The numbers 105, 105, 67, 7, 6, 5, 6 are percent fluorescence values as calculated in […]. These figures are used to determine susceptibility according to the methods discussed on pages 12 and 13.

Where [4] appears, read: Enterococcus faecalis, read-out: percent fluorescence.

Converted amounts (≈) assume the structure as drawn. Where two headings read alike, the source gives them in different places.

On to `CCCCCCCCC(=O)Oc1ccc2c(C)cc(=O)oc2c1` [4-methylumbelliferyl nonanoate], for which the redissolution after dehydration entry in data set [1] is “difficult to redissolve evenly after dehydration”.

Consider `CN[C@@H]1[C@H](O[C@H]2[C@H](O[C@H]3[C@H](O)[C@@H](O)[C@H](N=C(N)N)[C@@H](O)[C@@H]3N=C(N)N)O[C@@H](C)[C@]2(O)C=O)O[C@@H](CO)[C@H](O)[C@H]1O` [Streptomycin Synergy Screen], for which the “Streptomycin Synergy Screen result in Table 7” value in data set [2] (Table 7, Enterococcus faecalis, Example 1) was 5. Moreover, the “susceptibility to synergy screen” value in data set [2] (Table 7, Example 1) was “susceptible”. The percent fluorescence in data set [3] (synergy screen well) was 5%.

`CC[C@H]1OC(=O)[C@H](C)[C@@H](O[C@H]2C[C@@](C)(OC)[C@@H](O)[C@H](C)O2)[C@H](C)[C@@H](O[C@@H]2O[C@H](C)C[C@H](N(C)C)[C@H]2O)[C@](C)(O)C[C@@H](C)C(=O)[C@H](C)[C@@H](O)[C@]1(C)O` [Erythromycin]: the MIC in data set [2] (read-out: concentration at which organism was found to be susceptible) was 4 µg/mL (≈ 5.45 µM). Besides, the MIC in data set [2] (read-out: minimum inhibitory concentration) was found to be 4 µg/mL (≈ 5.45 µM). In data set [3] (setting [4]), the activity at 0.25 µg/mL stood at 59%, the activity at 0.5 µg/mL turned out to be 9%, the activity at 1 µg/mL was found to be 5% and the activity at 2 µg/mL came out at 5%. In addition, the activity at 4 µg/mL in data set [3] (setting [4]) was determined as 4%.
